Assay type in all cases: in vivo
Assay [1] concerns Amaranthus retoflexus (AMARE). Nature of the assay: Pre-emergence biological efficacy, glasshouse pot test. As to conditions: Amaranthus retroflexus, 312 h. The procedure, abridged:
(§1)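 Sow seeds in pots of standard soil; after one day in the glasshouse, spray test compound (1000 or 250 g/ha) in aqueous acetone/water with 0.5% Tween 20. Grow 13 days at 24/16 °C day/night, then score damage from 0 to 100.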

For assay [2], the system named is Solanum nigrum (SOLNI). Described as above. To be noted: 312 h. In a few lines: as §1
Assay [3] has as its system Echinochloa crus-galli (ECHCG). The description is as above. To be noted: 312 h. In a few lines: as §1
For assay [4], the system named is Setaria faberi (SETFA). Described as above. As to conditions: 312 h. The procedure, abridged: as §1
In assay [5] the test system is Alopecurus myosuroides (ALOMY). The description is as above. As to conditions: 312 h. The procedure, abridged: as §1
Assay [6] deals with Ipomea hederaceae (IPOHE). The description is as above. As to conditions: Ipomoea hederacea, 312 h. The procedure, abridged: as §1
Assay [7] relates to Amaranthus retoflexus (AMARE). Nature of the assay: Post-emergence biological efficacy, glasshouse pot test. To be noted: Amaranthus retroflexus, 312 h. The procedure, abridged:
(§2)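 Scored 13 days after spraying on a 0 (no damage) to 100 (total damage) scale. Treatment was a post-emergence spray at 1000 or 250 g/ha, from acetone/water 50:50 plus 0.5% Tween 20, onto 8-day-old plants in soil pots. Growth at 24/16° C, 14 h photoperiod, 65% humidity, watered twice daily.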

Assay [8] has as its system Solanum nigrum (SOLNI). Described as above. As to conditions: 312 h. In a few lines:
as §2

Assay [9] deals with Echinochloa crus-galli (ECHCG). The description is as above. To be noted: 312 h. The procedure, abridged:
as §2

The test system of assay [10] is Setaria faberi (SETFA). Described as above. To be noted: 312 h. In a few lines:
as §2

The test system of assay [11] is Alopecurus myosuroides (ALOMY). The description is as above. To be noted: 312 h. The procedure, abridged:
as §2

The subject of assay [12] is Ipomea hederaceae (IPOHE). The assay is described as above. As to conditions: Ipomoea hederacea, 312 h. In a few lines:
as §2

Where [13] appears, read: pre-emergence, 1,000 g/ha, evaluated after 13 days (100=total damage; 0=no damage), read-out: Percentage damage AMARE.
[14] abbreviates: pre-emergence, 1,000 g/ha, evaluated after 13 days (100=total damage; 0=no damage), read-out: Percentage damage SOLNI.
[15] abbreviates: pre-emergence, 1,000 g/ha, evaluated after 13 days (100=total damage; 0=no damage), read-out: Percentage damage ECHCG.
The mark [16] stands for this setting: pre-emergence, 1,000 g/ha, evaluated after 13 days (100=total damage; 0=no damage), read-out: Percentage damage SETFA.
Where [17] appears, read: pre-emergence, 1,000 g/ha, evaluated after 13 days (100=total damage; 0=no damage), read-out: Percentage damage ALOMY.
[18] abbreviates: pre-emergence, 1,000 g/ha, evaluated after 13 days (100=total damage; 0=no damage), read-out: Percentage damage IPOHE.
Setting [19] is: post-emergence, 1,000 g/ha, evaluated after 13 days (100=total damage; 0=no damage), read-out: Percentage damage caused to weed species, AMARE.
[20] abbreviates: post-emergence, 1,000 g/ha, evaluated after 13 days (100=total damage; 0=no damage), read-out: Percentage damage caused to weed species, SOLNI.
[21] abbreviates: post-emergence, 1,000 g/ha, evaluated after 13 days (100=total damage; 0=no damage), read-out: Percentage damage caused to weed species, ECHCG.
Where [22] appears, read: post-emergence, 1,000 g/ha, evaluated after 13 days (100=total damage; 0=no damage), read-out: Percentage damage caused to weed species, SETFA.
Setting [23] is: post-emergence, 1,000 g/ha, evaluated after 13 days (100=total damage; 0=no damage), read-out: Percentage damage caused to weed species, ALOMY.
Setting [24] is: post-emergence, 1,000 g/ha, evaluated after 13 days (100=total damage; 0=no damage), read-out: Percentage damage caused to weed species, IPOHE.
The mark [25] stands for this setting: pre-emergence, rate 1,000 g/ha, evaluated after 13 days (100=total damage to plant; 0=no damage), read-out: Percentage damage caused to weed species, AMARE.
[26] abbreviates: pre-emergence, rate 1,000 g/ha, evaluated after 13 days (100=total damage to plant; 0=no damage), read-out: Percentage damage caused to weed species, SOLNI.
Setting [27] is: pre-emergence, rate 1,000 g/ha, evaluated after 13 days (100=total damage to plant; 0=no damage), read-out: Percentage damage caused to weed species, ECHCG.
Where [28] appears, read: pre-emergence, rate 1,000 g/ha, evaluated after 13 days (100=total damage to plant; 0=no damage), read-out: Percentage damage caused to weed species, SETFA.
[29] abbreviates: pre-emergence, rate 1,000 g/ha, evaluated after 13 days (100=total damage to plant; 0=no damage), read-out: Percentage damage caused to weed species, ALOMY.
[30] abbreviates: pre-emergence, rate 1,000 g/ha, evaluated after 13 days (100=total damage to plant; 0=no damage), read-out: Percentage damage caused to weed species, IPOHE.
Setting [31] is: Rate 1,000 g/ha, post-emergence spray, evaluated after 13 days (100=total damage to plant; 0=no damage to plant), read-out: Percentage damage caused to weed species, post-emergence, AMARE.
[32] abbreviates: Rate 1,000 g/ha, post-emergence spray, evaluated after 13 days (100=total damage to plant; 0=no damage to plant), read-out: Percentage damage caused to weed species, post-emergence, SOLNI.
The mark [33] stands for this setting: Rate 1,000 g/ha, post-emergence spray, evaluated after 13 days (100=total damage to plant; 0=no damage to plant), read-out: Percentage damage caused to weed species, post-emergence, ECHCG.
Where [34] appears, read: Rate 1,000 g/ha, post-emergence spray, evaluated after 13 days (100=total damage to plant; 0=no damage to plant), read-out: Percentage damage caused to weed species, post-emergence, SETFA.
Setting [35] is: Rate 1,000 g/ha, post-emergence spray, evaluated after 13 days (100=total damage to plant; 0=no damage to plant), read-out: Percentage damage caused to weed species, post-emergence, ALOMY.
The mark [36] stands for this setting: Rate 1,000 g/ha, post-emergence spray, evaluated after 13 days (100=total damage to plant; 0=no damage to plant), read-out: Percentage damage caused to weed species, post-emergence, IPOHE.

SMILES strings stand for the structures.

Regarding `COC(=O)c1nc(C2CC2)nc(NCc2ncccc2Cl)c1Cl` [Compound 4-152, 5-Chloro-4-(3-chloropyrid-2-ylmethylamino)-2-cyclopropyl-6-methoxycarbonyl-pyrimidine], the pest or weed control at 1000 g/ha in assay [1] (setting [13]) worked out at 70%; in the assay with Solanum nigrum (SOLNI) [2] (setting [14]), 80%; in assay [3] (setting [15]), 70%; with Setaria faberi (SETFA) [4] (setting [16]), 40%; in assay [5] (setting [17]) it was 20%; in [6] (setting [18]), 100%. Further, the pest or weed control at 1000 g/ha is 100% in assay [7] (setting [19]); 90% with Solanum nigrum (SOLNI) [8] (setting [20]); 80% in assay [9] (setting [21]); 90% with Setaria faberi (SETFA) [10] (setting [22]); 50% in [11] (setting [23]); 100% in assay [12] (setting [24]).

Consider `COC(=O)c1nc(C2CC2)nc(NCC(O)c2ccc(O)cc2)c1Cl` (stereo not drawn) [Compound 4-259, 5-Chloro-2-cyclopropyl-4-[2-hydroxy-2-(4-hydroxyphenyl)-ethylamino]-6-methoxycarbonyl-pyrimidine], for which the pest or weed control at 1000 g/ha came to 100% in assay [1] (setting [13]); 90% in the assay on Solanum nigrum (SOLNI) [2] (setting [14]); 30% in assay [3] (setting [15]); 30% in the assay on Setaria faberi (SETFA) [4] (setting [16]); 10% in [5] (setting [17]); 100% in [6] (setting [18]). For the same molecule, the pest or weed control at 1000 g/ha in assay [7] (setting [19]) was 100%; with Solanum nigrum (SOLNI) [8] (setting [20]), 80%; in assay [9] (setting [21]), 30%; in the assay on Setaria faberi (SETFA) [10] (setting [22]), 80%; in assay [11] (setting [23]), 20%; in assay [12] (setting [24]), 70%.

Consider `COC(=O)c1nc(C2CC2)nc(NCC(F)c2ccc(Br)cc2)c1Cl` (stereo not drawn) [Compound 4-236, 4-[2-(4-Bromophenyl)-2-fluoro-ethylamino]-5-chloro-2-cyclopropyl-6-methoxycarbonyl-pyrimidine], for which the pest or weed control at 1000 g/ha was found to be 0% in [1] (setting [13]); 60% with Solanum nigrum (SOLNI) [2] (setting [14]); 0% in [3] (setting [15]); 0% with Setaria faberi (SETFA) [4] (setting [16]); 0% in assay [5] (setting [17]); 0% in assay [6] (setting [18]). Further, the pest or weed control at 1000 g/ha in [7] (setting [19]) was 100%; in the assay with Solanum nigrum (SOLNI) [8] (setting [20]), 70%; in [9] (setting [21]), 0%; with Setaria faberi (SETFA) [10] (setting [22]), 40%; in assay [11] (setting [23]), 0%; in assay [12] (setting [24]), 60%.

`COC(=O)c1nc(C2CC2)nc(NCc2ccccc2C(F)(F)F)c1Cl` [Compound 4-75, 5-Chloro-2-cyclopropyl-6-methoxycarbonyl-4-(2-trifluoromethyl-phenylmethyl-amino)-pyrimidine]: the pest or weed control at 1000 g/ha in assay [1] (setting [13]) is 50%; in the assay on Solanum nigrum (SOLNI) [2] (setting [14]) it was 30%; in assay [3] (setting [15]) it was 0%; in the assay on Setaria faberi (SETFA) [4] (setting [16]), 10%; in [5] (setting [17]), 10%; in assay [6] (setting [18]), 20%. Also, the pest or weed control at 1000 g/ha in assay [7] (setting [19]) came out at 100%; in the assay with Solanum nigrum (SOLNI) [8] (setting [20]) it was 100%; in [9] (setting [21]) it was 50%; in the assay with Setaria faberi (SETFA) [10] (setting [22]), 90%; in assay [11] (setting [23]) it was 20%; in assay [12] (setting [24]), 100%.

For the molecule `COC(=O)c1nc(-c2ccc(Cl)c(OC)c2F)nc(NCc2ccco2)c1Cl` [Compound 112-125, 5-Chloro-2-(4-chloro-2-fluoro-3-methoxyphenyl)-4-(furan-2-yl-methyl-amino)-6-methoxy-carbonylpyrimidine], the pest or weed control at 1000 g/ha in [1] (setting [25]) turned out to be 100%; in the assay with Solanum nigrum (SOLNI) [2] (setting [26]), 90%; in assay [3] (setting [27]), 100%; in the assay with Setaria faberi (SETFA) [4] (setting [28]), 90%; in assay [5] (setting [29]) it was 70%; in assay [6] (setting [30]), 100%. Also, the pest or weed control at 1000 g/ha in assay [7] (setting [31]) amounted to 100%; in the assay on Solanum nigrum (SOLNI) [8] (setting [32]) it was 100%; in assay [9] (setting [33]), 90%; in the assay on Setaria faberi (SETFA) [10] (setting [34]) it was 100%; in assay [11] (setting [35]), 80%; in assay [12] (setting [36]) it was 90%.

Regarding `COC(=O)c1nc(C2CC2)nc(N(C)Cc2ccc(C)o2)c1Cl` [Compound 5-135, 5-Chloro-2-cyclopropyl-6-methoxycarbonyl-4-[N-methyl-N-(5-methylfuran-2-ylmethyl)-amino]-pyrimidine], the pest or weed control at 1000 g/ha in assay [1] (setting [25]) turned out to be 100%; in the assay with Solanum nigrum (SOLNI) [2] (setting [26]), 90%; in assay [3] (setting [27]), 0%; in the assay on Setaria faberi (SETFA) [4] (setting [28]), 10%; in [5] (setting [29]) it was 30%; in [6] (setting [30]) it was 100%. Moreover, the pest or weed control at 1000 g/ha in assay [7] (setting [31]) came out at 100%; in the assay on Solanum nigrum (SOLNI) [8] (setting [32]), 90%; in [9] (setting [33]) it was 40%; with Setaria faberi (SETFA) [10] (setting [34]), 80%; in [11] (setting [35]) it was 30%; in [12] (setting [36]), 100%.

Take `COC(=O)c1nc(C2CC2)nc(Nc2ccccc2)c1Cl` [Compound 4-39, 5-Chloro-2-cyclopropyl-6-methoxycarbonyl-4-phenylamino-pyrimidine]: the pest or weed control at 1000 g/ha was found to be 60% in [1] (setting [13]); 50% in the assay on Solanum nigrum (SOLNI) [2] (setting [14]); 20% in assay [3] (setting [15]); 0% in the assay with Setaria faberi (SETFA) [4] (setting [16]); 0% in assay [5] (setting [17]); 80% in assay [6] (setting [18]). In addition, the pest or weed control at 1000 g/ha in [7] (setting [19]) turned out to be 100%; in the assay on Solanum nigrum (SOLNI) [8] (setting [20]), 80%; in assay [9] (setting [21]), 70%; with Setaria faberi (SETFA) [10] (setting [22]) it was 60%; in assay [11] (setting [23]), 50%; in assay [12] (setting [24]), 70%.

Source of the values: patent US20110086759A1, “CHEMICAL COMPOUNDS” (SYNGENTA CROP PROTECTION, INC., priority 2007, published 2011).
